Assays:
[1] = tested on: CMT transgenic rat model (PMP22 transgenic rats); assay: Electrophysiology: sensitive nerve potential amplitude (SNAP) in CMT rats; assay type: in vivo; details: CMT TG rats treated 20 weeks vs TG placebo
Experimental: When appropriate, the rats are subjected to electrophysiological evaluation: the sensitive nerve conduction velocity as well as latencies and potential amplitude are measured.
NCV measurement and potential acquisition (subcutaneous) were performed with the help of the chain composed of an amplificator (AM System 1700 and/or EMG-UTC), a stimulator (Havard apparatus 223) and a computer equipped with an acquisition card and a software for acquisition (SPATOL) and for the signal treatment (CALVISE).
Animals were anesthetized using ketamine/xalazine and maintained on the thermostated plate at 37° C. throughout the test (anaesthetics were supplemented as needed). Stimulating silver needle electrodes were inserted in the proximal part of the tail. The recording electrode was inserted subcutaneously through about 1 mm of skin in the distal part of the tail (4 and 6 cm from the stimulating electrode). Constant-current square-wave stimuli, […] in duration, were administered at a frequency of 0.3 per second. Responses, amplified 5.000-20.000, were visualized and collected on a computer based data acquisition system. Latencies were measured at each wave onset (defined as the first clearly identifiable deflection from the baseline). Peak to peak amplitudes of the largest deflections were calculated to determine maximum amplitude. For each recording, measurements were performed on the averaged responses to at least ten identical stimuli.
Sensory related conduction velocity (SNCV) was calculated by division of the distance between the stimulating cathodes by the difference between the correspondent latencies obtained from the two sites of stimulation.

PMP22 mRNA = PMP22 mRNA expression in primary rat Schwann cells after 24 hrs drug incubation; assay type: cell-based
Experimental: Vials of rat Schwann cells (SC) primary culture (Sciencell # R1700) are defrosted and seeded at the density of 10,000 cells/cm2 in “Sciencell Schwann cell medium” (basal medium from Sciencell # R1701) in poly-L-lysine pre-coated 75 cm^2 flasks. The culture medium is composed of basal medium, 5% Fetal Bovine Serum (3H-Biomedical AB #1701-0025), 1% Schwann cell growth supplement (3H Biomedical AB #1701-1752), 1% Gentamicin (Sigma #G1397) and 10 μM of Forskolin (Sigma # F6886) to promote their proliferation.
After reaching confluency (4 to 10 days depending on cell batch), Schwann cells are purified by gentle agitation or by thy1.1 immunopanning that allow SC isolation from adherent fibroblasts, to produce cultures that are at least 95% pure. SC are then counted (Tryptan blue method) and seeded in poly-L-lysine pre-coated 75 cm^2 flask in the same SC medium. At confluency, cells are rinsed, trypsinized (trypsin-EDTA 1× diluted from Invitrogen #1540054), diluted in PBS without calcium and magnesium) counted and platted in 12 well-dishes (140 000 cells/well) in Sciencell Schwann cell medium with 5% of FBS, 1% of cell growth supplement (CGS), 40 μg/ml of gentamicin and 4 μM Forskolin.
Primary Schwann cell cultures (SC) are established from Sprague-Dawley newborn rats (between P0 and P2) sciatic nerves. All newborn rats are sacrificed and isolated in a Petri dish. Dissection is performed under sterile conditions.
The dorsal skin is removed from the hind paw and the lower torso. The sciatic nerve is isolated and transferred to a culture dish containing ice-cold Leibovitz (L15, Invitogen #11415) supplemented with 1% penicillin/streptomycin solution (50 UI/ml and 50 μg/ml, respectively; Invitrogen #15070) and 1% of bovine serum albumin (BSA, Sigma A6003). Both nerves per rats are transferred in a 15 ml tube containing ice-cold L15. The L15 medium is then removed and replaced by 2.4 ml of DMEM (Invitrogen #21969035) with 10 mg/ml of collagenase ([…]). Nerves are incubated in this medium for 30 minutes at 37° C. The medium is then removed and both nerves are dissociated by trypsin (10% trypsin EDTA 10×, Invitrogen #15400054) diluted in PBS without calcium and magnesium (Invitrogen #2007-03) for 20 min at 37° C. […] Cells are counted (Tryptan blue method) and seeded in Falcon 100 mm Primaria tissue culture plates at the density of 5·10^5 to 10^6 cells/dish. […]
After 8 days of culture (4 to 10 days depending on cell batches), Schwann cells reach confluency and the culture, containing a large amount of contaminating fibroblasts, is purified by the thy1.1 immunopanning method. […] Once they reach confluency, cells are rinsed, trypsinized (trypsin-EDTA), counted and platted in 12 well-dishes (100 000 cells/well). […]

[2] = tested on: CMT transgenic rat model (PMP22 transgenic rats); assay: Post-mortem weighing of sciatic nerves and soleus muscles in CMT rats; assay type: in vivo; details: CMT female rats treated 20 weeks
Text: FIG. 5: The analysis of the post-mortem samples obtained from the animals treated with drugs as described in the legend to FIG. 3. The rats treated with drugs and placebo during 20 weeks, were deeply anesthetized and the entire sciatic nerves and soleus muscles were carefully sampled and weighted. The graphs present the 30 mean values of these measurements.
Sciatic nerves are excised and used for weighting as well as for molecular biology and/or biochemical essays. (RT-Q-PCR for PMP22 mRNA and Western blots for myelin proteins quantifications; Cayman's EIA kits—for biochemical markers such as arachidonic acid metabolites, HPLC quantification for steroids and amines, ELISA for CNTF, IL-6 etc.) performed according to generally used protocols and for analytical procedures (drug concentrations measures).
The hind limbs muscles (soleus) are sampled, weighted, snap-frozen and preserved at −80° C. until analysis (the same as for sciatic nerves).

Question: Which “SNAP (sensitive nerve potential amplitude), distal portion of the tail” value (“SNAP” for short) [1] does the source give for Cn1cc[nH]c1=S [methimazole, 1-methyl-3H-imidazole-2-thione] here?
Answer: significantly improved

Question: And the “dose inducing the most important PMP22 mRNA down-regulation” value (PMP22 mRNA; primary Schwann cells)?
Answer: lower dose

Question: And the “PMP22 mRNA level” value (PMP22 mRNA; primary rat Schwann cells, 1 mM or 1 μM of compound A)?
Answer: significantly decreased

Question: What about the “mass of sciatic nerves and soleus muscles” value [2] of the same compound?
Answer: completely corrected

Question: Which “SNAP” value [1] does the source give for CC[C@@H]1C(=O)OC[C@@H]1Cc1cncn1C [pilocarpine, (3S,4R)-3-ethyl-4-[(3-methylimidazol-4-yl)methyl]oxolan-2-one] here?
Answer: failed to reach statistical significance

Question: And the “SNAP” value ([1]; listed as compound B)?
Answer: approaching the nominal 5% threshold for significance

Question: What about the “dose inducing the most important PMP22 mRNA down-regulation” value (PMP22 mRNA; primary Schwann cells) of the same compound?
Answer: 1 µM

Question: And the “PMP22 mRNA level of expression” value (PMP22 mRNA; primary Schwann cells, low doses 10 nM and 50 nM)?
Answer: significantly down-regulated

Question: What about the “mass of sciatic nerves and soleus muscles” value [2] of the same compound?
Answer: smaller than that of methimazole
